Here are results for 15 compounds from patent US20240018125A1, “CYCLIC ISOTHIOUREA DERIVATIVES AS CXCR4 MODULATORS” (ERMIUM THERAPEUTICS, priority 2020, published 2024).

pIC50: −log10 of the molar value. Where a name gives a salt, the structure may show the parent alone. Some results are limits rather than exact numbers.

What is called pIC50 is the negative decadic logarithm of the IC50, by convention in mol/L.

This assay relates to peripheral blood mononuclear cells (PBMCs) from healthy donors. Description: IFN production by R848-activated PBMCs, quantified with twINNE luciferase reporter cell line. It counts as cell-based, human. The settings on record: Homo sapiens, PBMC; read-out: IC50 of anti-inflammatory activity (IFN production by activated PBMCs). The method, then:
The blood from healthy donors was obtained from “Etablissement Français du Sang” (convention #19/EFS/029), Paris, France.
In vitro experiments were performed using human peripheral blood mononuclear cells (PBMCs) isolated by density centrifugation from peripheral blood leukocyte separation medium, lymphoprep (Stemcell Technologies).
PBMCs were cultured in RPMI 1640 (Sigma-Aldrich, MO, USA) containing 10% heat-inactivated fetal bovine serum (Sigma-Aldrich, MO, USA) at 37° C./5% CO2.
The PBMCs used herein were prepared as described in part A “immune cells preparation”, above. PBMCs were seeded at 4.10^6/mL. Cells were pre-treated with different concentration of examples according to the invention. Cells were then stimulated with the TLR7/8 agonist resiquimod—R848 (Sigma-Aldrich, MO, USA) at 5 μg/mL.
To quantify the secretion of functional IFN, a biological assay based on a stable cell line where luciferase reporter gene is controlled by five Interferon-Stimulated Response Elements (twINNE cell line) was used. First, supernatants of R848-stimulated PBMCs (see part B above) were harvested after 24 h of stimulation and frozen at −20° C. for storage. Then, supernatants were dispensed in culture wells of a 96-well plate containing 35.103 twINNE cells per well in Dulbecco's Modified Eagle's Medium supplemented with 10% Foetal Bovine Serum, 100 U/mL Penicillin and 100 μg/mL Streptomycin (1% Pen-Strep) and 1 mM glutamine (Sigma-Aldrich, MO, USA) at 37° C./5% CO2. After 24 h of culture, luciferase activity was determined by adding 60 μL of Bright-Glo reagents (Promega, Wisconsin, USA) to culture wells and measuring bioluminescence with EnSpire Multimode Plate Reader (PerkinElmer, Massachusetts, USA). When stated, for IC50 calculation, dose-response curves fitted using the nonlin fit (variable slope) analysis in GraphPad Prism software (GraphPad Software, Califronia, USA).
IFN production was quantified (as specified in Materials and Methods, part C “quantification of interferon secretion”) using twINNE reporter cell line.
Take `Clc1ccc2c(c1)CN1C(CSC3=NCc4cc(Cl)ccc4N3)=CSC1=N2` [Example 44, 7-chloro-3-(((6-chloro-1,4-dihydroquinazolin-2-yl)thio)methyl)-5H-thiazolo[2,3-b]quinazoline dihydrochloride]: the pIC50 is below 4.49.
With `CN1CCN=C1SCC1=CSC2=Nc3ccc(Cl)cc3CN12` [Example 45, 7-chloro-3-(((1-methyl-4,5-dihydro-1H-imidazol-2-yl)thio)methyl)-5H-thiazolo[2,3-b]quinazoline dihydrochloride], the pIC50 is at least 5.00.
With `COc1ccc(CC2(C)CN3C(CSC4=NCc5ccccc5N4)=CSC3=N2)cc1` (stereo not drawn) [Example 46, 3-(((3,4-dihydroquinazolin-2-yl)thio)methyl)-6-(4-methoxybenzyl)-6-methyl-5,6-dihydroimidazo[2,1-b]thiazole dihydrochloride], the pIC50 is at least 5.00.
With `Clc1ccc2c(c1)CN1C(CSC3=NCCN3Cc3ccccc3)=CSC1=N2` [Example 47, 3-(((1-benzyl-4,5-dihydro-1H-imidazol-2-yl)thio)methyl)-7-chloro-5H-thiazolo[2,3-b]quinazoline dihydrochloride] the figure was at least 5.00; with `CC(C)N1CCN=C1SCC1=CSC2=Nc3ccc(Cl)cc3CN12` [Example 48, 7-chloro-3-(((1-isopropyl-4,5-dihydro-1H-imidazol-2-yl)thio)methyl)-5H-thiazolo[2,3-b]quinazoline dihydrochloride], at least 5.00; with `Clc1ccc2c(c1)CN1C(CSC3=NCC4CCCCN34)=CSC1=N2` (stereo not drawn) [Example 49, 7-chloro-3-(((1,5,6,7,8,8a-hexahydroimidazo[1,5-a]pyridin-3-yl)thio)methyl)-5H-thiazolo[2,3-b]quinazoline dihydrochloride], at least 5.00.
`c1ccc(CC2CN=C(SCCN3CCCCC3)N2)cc1` (stereo not drawn) [Example 50, 1-(2-((5-benzyl-4,5-dihydro-1H-imidazol-2-yl)thio)ethyl)piperidine dihydrochloride]: the pIC50 was below 4.49.
With `c1ccc(CC2CN=C(SCCCN3CCCC3)N2)cc1` (stereo not drawn) [Example 52, 5-benzyl-2-((3-(pyrrolidin-1-yl)propyl)thio)-4,5-dihydro-1H-imidazole dihydrochloride], the negative-log IC50 (pIC50) is below 4.49.
Consider `CN1CCCC1CSC1=NCC(Cc2ccccc2)N1` (stereo not drawn) [Example 53, 5-benzyl-2-(((1-methylpyrrolidin-2-yl)methyl)thio)-4,5-dihydro-1H-imidazole dihydrochloride], for which the pIC50 is 4.49 to 5.00.
With `c1ccc(CC2CN=C(SCCN3CCCC3)N2)cc1` (stereo not drawn) [Example 54, 5-benzyl-2-((2-(pyrrolidin-1-yl)ethyl)thio)-4,5-dihydro-1H-imidazole dihydrochloride], the pIC50 was 4.49 to 5.00.
As for `c1ccc(CC2CN=C(SCc3ccncc3)N2)cc1` (stereo not drawn) [Example 56, 4-(((5-benzyl-4,5-dihydro-1H-imidazol-2-yl)thio)methyl)pyridine dihydrochloride], the pIC50 is 4.49 to 5.00.
On to `CN1CCCC1CCSC1=NCC(Cc2ccccc2)N1` (stereo not drawn) [Example 57, 5-benzyl-2-((2-(1-methylpyrrolidin-2-yl)ethyl)thio)-4,5-dihydro-1H-imidazole dihydrochloride], for which the negative-log IC50 (pIC50) was below 4.49.
As to `c1ccc(CC2CN=C(SCCN3CCCCCC3)N2)cc1` (stereo not drawn) [Example 58, 1-(2-((5-benzyl-4,5-dihydro-1H-imidazol-2-yl)thio)ethyl)azepane dihydrochloride], the pIC50 is 4.49 to 5.00.
On to `Clc1ccc2c(c1)CN=C(SCCN1CCCC1)N2` [Example 59, 6-chloro-2-((2-(pyrrolidin-1-yl)ethyl)thio)-1,4-dihydroquinazoline dihydrochloride], for which the negative-log IC50 (pIC50) was at least 5.00.
With `Clc1nccc2sc(CSC3=NCC(Cc4ccccc4)N3)cc12` (stereo not drawn) [Example 61, 2-(((5-benzyl-4,5-dihydro-1H-imidazol-2-yl)thio)methyl)-4-chlorothieno[3,2-c]pyridine dihydrochloride], the pIC50 was at least 5.00.
